Test [1] has as its system Lymnaea. The test can be described thus: Inhibition of acetylcholinesterase from nerve tissue of Lymnaea acuminata at 0.23 ug w/v relative to control. On the set-up: scale not given: the % may be the effect or the level left.
For test [2], the system named is Lymnaea. The test can be described thus: Inhibition of acetylcholinesterase from nerve tissue of Lymnaea acuminata at 2 ug w/v relative to control. Also noted: scale not given: the % may be the effect or the level left.
The test system of test [3] is Lymnaea. The test can be described thus: In vivo inhibition of acetylcholinesterase from nerve tissue of Lymnaea acuminata at 14 mg/L relative to control. Type of test: functional. Also noted: scale not given: the % may be the effect or the level left.
Test [4] deals with Lymnaea. The test can be described thus: Inhibition of acetylcholinesterase from nerve tissue of Lymnaea acuminata at 0.75 ug w/v relative to control. On the set-up: scale not given: the % may be the effect or the level left.
Test [5] concerns Lymnaea. The test can be described thus: In vivo inhibition of acetylcholinesterase from nerve tissue of Lymnaea acuminata at 27 mg/L relative to control. On the set-up: scale not given: the % may be the effect or the level left. It is filed as functional.
The test system of test [6] is Lymnaea. The test can be described thus: In vivo inhibition of acetylcholinesterase from nerve tissue of Lymnaea acuminata at 2.5 mg/L relative to control. It is filed as functional. On the set-up: scale not given: the % may be the effect or the level left.
Test [7] deals with Lymnaea. The test can be described thus: Inhibition of acetylcholinesterase from nerve tissue of Lymnaea acuminata at 1 ug w/v relative to control. On the set-up: scale not given: the % may be the effect or the level left.
The subject of test [8] is Lymnaea. The test can be described thus: Molluscicidal activity against Lymnaea acuminata within 24 hrs. Type of test: functional.
For test [9], the system named is Lymnaea. The test can be described thus: In vivo inhibition of acetylcholinesterase from nerve tissue of Lymnaea acuminata at 30 mg/l relative to control. Also noted: scale not given: the % may be the effect or the level left. Type of test: functional.
For test [10], the system named is Lymnaea. The test can be described thus: Inhibition of acetylcholinesterase from nerve tissue of Lymnaea acuminata at 0.5 ug w/v relative to control. On the set-up: scale not given: the % may be the effect or the level left.

In [1], `CNC(=O)Oc1ccc2c(c1)[C@]1(C)CCN(C)[C@@H]1N2C` displayed an Activity of 13%.

Consider `CNC(=O)Oc1cccc2ccccc12` [CARBARIL], for which the Activity in [2] stood at 67%; in test [3], 73%.

As for `COP(=S)(OC)SCC(=O)N(C)C=O` [FORMOTHION], the Activity in [4] is 47%; in test [5], 79%.

Consider `CNC(=O)Oc1cc(C)c(N(C)C)c(C)c1` [MEXACARBATE], for which the Activity came out at 53% in test [6] and 39% in test [7].

Compound `O=C(Nc1ccc([N+](=O)[O-])cc1Cl)c1cc(Cl)ccc1O` [NICLOSAMIDE] displayed an Activity in test [8] of 63%.

As to `CCOP(=S)(OCC)SCSCC` [PHORATE], the Activity in test [9] amounted to 67%; in [10], 42%.

Values taken from ChEMBL document CHEMBL1151621, “Correlation of the anticholinesterase and molluscicidal activity of the latex of Euphorbia royleana on the snail Lymnaea acuminata” (1984).
